ChEMBL document CHEMBL5465560, “Selectivity Literature for EUbOPEN Chemogenomic Library” (2024)

Tests used:
[1] = target: T1, Mitogen-activated protein kinase kinase kinase 19 (Homo sapiens) (UniProt Q56UN5); test: Selectivity interaction (KinomeScan (DiscoverX)) EUB0000618a MAP3K19; conditions: at 10 µM
T1 sequence (whole entry): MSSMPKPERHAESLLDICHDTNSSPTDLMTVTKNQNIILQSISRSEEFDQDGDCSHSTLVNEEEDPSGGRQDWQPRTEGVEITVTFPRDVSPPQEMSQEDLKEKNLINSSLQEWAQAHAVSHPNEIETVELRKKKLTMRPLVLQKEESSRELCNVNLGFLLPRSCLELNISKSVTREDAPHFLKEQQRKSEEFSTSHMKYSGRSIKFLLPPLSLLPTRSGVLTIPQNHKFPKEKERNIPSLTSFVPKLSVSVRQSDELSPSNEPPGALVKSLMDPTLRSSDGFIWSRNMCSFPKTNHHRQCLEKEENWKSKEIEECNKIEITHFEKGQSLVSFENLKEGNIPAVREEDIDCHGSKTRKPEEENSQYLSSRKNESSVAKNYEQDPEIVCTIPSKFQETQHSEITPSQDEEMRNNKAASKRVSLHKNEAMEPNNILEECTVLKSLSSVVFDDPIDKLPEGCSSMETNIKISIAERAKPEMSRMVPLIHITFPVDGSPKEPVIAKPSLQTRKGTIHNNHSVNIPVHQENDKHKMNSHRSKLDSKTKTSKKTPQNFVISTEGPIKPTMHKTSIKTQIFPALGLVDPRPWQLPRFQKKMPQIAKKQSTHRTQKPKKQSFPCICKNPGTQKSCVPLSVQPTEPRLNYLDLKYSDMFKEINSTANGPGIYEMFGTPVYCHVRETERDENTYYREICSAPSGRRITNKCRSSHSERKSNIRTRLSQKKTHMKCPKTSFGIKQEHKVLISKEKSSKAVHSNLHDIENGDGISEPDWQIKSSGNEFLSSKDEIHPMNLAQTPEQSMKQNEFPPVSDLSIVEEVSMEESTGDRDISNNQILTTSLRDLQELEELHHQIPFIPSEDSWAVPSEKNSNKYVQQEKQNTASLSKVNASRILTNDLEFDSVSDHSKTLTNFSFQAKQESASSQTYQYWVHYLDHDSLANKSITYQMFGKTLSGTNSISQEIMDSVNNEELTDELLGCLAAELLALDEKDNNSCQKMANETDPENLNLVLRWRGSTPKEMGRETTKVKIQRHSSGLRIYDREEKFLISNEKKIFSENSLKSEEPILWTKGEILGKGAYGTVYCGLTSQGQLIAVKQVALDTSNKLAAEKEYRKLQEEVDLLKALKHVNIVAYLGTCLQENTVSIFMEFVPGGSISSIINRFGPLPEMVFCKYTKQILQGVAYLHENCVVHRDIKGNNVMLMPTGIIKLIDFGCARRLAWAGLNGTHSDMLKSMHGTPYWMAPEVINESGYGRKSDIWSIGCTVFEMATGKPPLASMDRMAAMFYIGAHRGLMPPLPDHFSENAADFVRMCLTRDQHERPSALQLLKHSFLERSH

[2] = target: Serine/threonine-protein kinase PAK 2 (Homo sapiens) (UniProt Q13177); test: Selectivity interaction (KinomeScan (DiscoverX)) EUB0001049a PAK2; conditions: at 1 µM
Chain of Serine/threonine-protein kinase PAK 2 (Homo sapiens) (Q13177 whole entry): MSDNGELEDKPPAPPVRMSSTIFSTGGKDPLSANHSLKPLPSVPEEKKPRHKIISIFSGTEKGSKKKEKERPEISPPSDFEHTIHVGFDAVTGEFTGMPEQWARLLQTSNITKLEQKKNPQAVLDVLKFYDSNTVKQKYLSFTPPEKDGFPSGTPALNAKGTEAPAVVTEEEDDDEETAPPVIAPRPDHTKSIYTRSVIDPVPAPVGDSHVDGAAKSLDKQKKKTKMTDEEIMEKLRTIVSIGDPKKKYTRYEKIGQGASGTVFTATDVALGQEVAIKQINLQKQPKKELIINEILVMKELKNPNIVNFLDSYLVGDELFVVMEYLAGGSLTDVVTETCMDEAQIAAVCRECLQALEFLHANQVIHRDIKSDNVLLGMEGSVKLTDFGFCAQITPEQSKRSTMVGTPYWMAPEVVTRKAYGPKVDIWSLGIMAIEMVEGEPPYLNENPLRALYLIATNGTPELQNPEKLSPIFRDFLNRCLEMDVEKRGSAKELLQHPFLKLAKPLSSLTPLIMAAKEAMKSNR

[3] = target: T2, Mitogen-activated protein kinase kinase kinase kinase 2 (Homo sapiens) (UniProt Q12851); test: Selectivity interaction (KinomeScan (DiscoverX)) EUB0000092b MAP4K2; conditions: at 10 µM
T2 sequence (whole entry): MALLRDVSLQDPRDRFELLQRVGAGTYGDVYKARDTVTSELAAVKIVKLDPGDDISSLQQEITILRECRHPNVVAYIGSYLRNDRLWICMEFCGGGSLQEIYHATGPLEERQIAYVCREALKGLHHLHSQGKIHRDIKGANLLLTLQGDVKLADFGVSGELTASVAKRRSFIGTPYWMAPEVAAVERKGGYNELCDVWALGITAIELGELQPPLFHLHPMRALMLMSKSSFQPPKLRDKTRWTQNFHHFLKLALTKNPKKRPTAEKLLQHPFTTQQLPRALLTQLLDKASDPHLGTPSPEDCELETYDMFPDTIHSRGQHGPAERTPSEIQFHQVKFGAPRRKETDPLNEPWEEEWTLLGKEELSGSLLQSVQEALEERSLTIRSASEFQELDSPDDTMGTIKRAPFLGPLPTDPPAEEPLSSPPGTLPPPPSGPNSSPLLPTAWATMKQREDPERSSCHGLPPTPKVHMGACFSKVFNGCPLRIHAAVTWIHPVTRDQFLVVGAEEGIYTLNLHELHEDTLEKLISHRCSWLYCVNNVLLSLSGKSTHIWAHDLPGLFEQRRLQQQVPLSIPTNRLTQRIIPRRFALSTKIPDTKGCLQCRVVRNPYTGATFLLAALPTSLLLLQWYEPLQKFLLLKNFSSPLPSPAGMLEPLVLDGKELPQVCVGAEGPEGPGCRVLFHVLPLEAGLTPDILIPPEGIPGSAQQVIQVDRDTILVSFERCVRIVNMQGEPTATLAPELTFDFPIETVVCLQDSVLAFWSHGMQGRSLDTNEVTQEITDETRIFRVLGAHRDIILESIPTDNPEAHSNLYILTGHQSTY

**Q.** How did the % of control [1] turn out when `O[C@H]1CC[C@H](Nc2ncc3nc(Nc4c(F)cc(F)cc4F)n([C@H]4CCOC4)c3n2)CC1` was run?
**A.** 47%

**Q.** `COc1cc(Nc2nc(C)cc(-c3cnn4nc(OC)ccc34)n2)cc(C(F)(F)F)c1` was tested. Which % of control [2] did it give?
**A.** 75%

**Q.** How did the % of control [3] turn out when `CCC(=O)N1CCN(c2ccc(-n3c(=O)ccc4cnc5ccc(-c6cnc7ccccc7c6)cc5c43)cc2C(F)(F)F)CC1` was run?
**A.** 35%
